Data reported in US6511975B1, “Spiropiperidine derivatives” (Sankyo Company, Limited, priority 1998, dated 2003).

Key:
Design in all cases: species or system guinea pig
Settings in all cases: stated in words only
[1] = target: T1, NK1 receptor (Cavia porcellus, UniProt P30547); assay: NK1 Receptor Binding Test ([3H]-substance P, crude pulmonary membrane specimens)
T1 construct: Crude pulmonary membrane specimens were prepared from the lungs of male Hartley guinea pigs; from tissue; host or cells: guinea pig lung (crude membranes)
Experimental: NK1 Receptor Binding Test
(a) Preparation of Crude Pulmonary Membrane Specimens
Crude pulmonary membrane specimens were prepared from the lungs of male Hartley guinea pigs. Namely, the animals were sacrificed by exsanguination from the abdominal aorta under chloroform anesthesia followed promptly by excision of lung and respiratory tract tissue.
After perfusing the excised lungs in buffer (1) (50 mM Tris-HCl, pH 7.4), the lungs were sliced into thin sections and then homogenized in a buffer (2) (buffer (1) containing 120 mM sodium chloride and 5 mM potassium chloride) using a Polytron.
(§1) The tissue mass was removed from the homogenate by passing through a Nylon mesh (50 μm) and separating by centrifugation (30,000×g, 30 minutes, 4° C.).
(§2) The pellet was re-suspended in an ice-cooled Buffer (3) (Buffer (1) containing 10 mM EDTA and 300 mM potassium chloride) and after allowing to stand undisturbed for 60 minutes at 4° C., the resulting suspension was centrifuged and washed twice (30,000×g, 15 minutes, 4° C.).
(§3) The crude membrane specimens were stored at −80° C. until the time of use.
(§4) (b) Receptor Binding Test […]
The filter containing the membrane component was transferred to a mini plastic vial containing 4 ml of Picoflow and radioactivity was measured with a liquid scintillation counter (Beckman, LCS3500).

[2] = target: T2, NK2 receptor (Cavia porcellus, UniProt Q64077); assay: NK2 Receptor Binding Test ([3H]-SR-48968, crude ileal membrane specimens)
T2 construct: Crude membrane specimens were prepared from the ileum of male Hartley guinea pigs; from tissue; host or cells: guinea pig ileum (crude membranes)
T2 sequence (Q64077 1-402): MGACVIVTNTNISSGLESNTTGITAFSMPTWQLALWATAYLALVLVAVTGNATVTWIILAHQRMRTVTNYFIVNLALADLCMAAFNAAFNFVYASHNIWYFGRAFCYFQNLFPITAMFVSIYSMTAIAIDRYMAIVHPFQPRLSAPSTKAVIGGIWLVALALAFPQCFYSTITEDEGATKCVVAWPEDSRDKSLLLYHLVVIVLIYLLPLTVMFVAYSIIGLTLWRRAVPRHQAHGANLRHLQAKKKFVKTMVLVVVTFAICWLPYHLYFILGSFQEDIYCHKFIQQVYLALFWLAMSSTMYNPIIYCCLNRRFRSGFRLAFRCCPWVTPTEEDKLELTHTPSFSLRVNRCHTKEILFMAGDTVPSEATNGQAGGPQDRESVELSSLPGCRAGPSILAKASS
Experimental: NK2 Receptor Binding Test
(a) Preparation of Crude Ileal Membrane Specimens
Crude membrane specimens were prepared from the ileum of male Hartley guinea pigs. Namely, the animals were sacrificed by exsanguination from the abdominal aorta under chloroform anesthesia followed promptly by excision of the ileum.
The excised ileum was separated into its contents, secretions and epithelium by scraping with a slide glass. After slicing into thin sections in buffer (1) (50 mM Tris-HCl, pH 7.4), it was homogenized in buffer (2) (buffer (1) containing 120 mM sodium chloride and 5 mM potassium chloride) using a Polytron.
as §1, §2, §3, §4
The filter containing the membrane component was transferred to a mini plastic vial containing 4 ml of Picoflow and radioactivity was measured with a liquid scintillation counter (Beckman. LSC3500).

[3] = target: T3, NK3 receptor (Cavia porcellus, UniProt P30098); assay: NK3 Receptor Binding Test ([3H]-senktide, crude cerebral membrane specimens)
T3 construct: Crude membrane specimens were prepared from the brain of male Hartley guinea pigs; from tissue; host or cells: guinea pig brain (crude membranes)
T3 sequence (P30098 1-440): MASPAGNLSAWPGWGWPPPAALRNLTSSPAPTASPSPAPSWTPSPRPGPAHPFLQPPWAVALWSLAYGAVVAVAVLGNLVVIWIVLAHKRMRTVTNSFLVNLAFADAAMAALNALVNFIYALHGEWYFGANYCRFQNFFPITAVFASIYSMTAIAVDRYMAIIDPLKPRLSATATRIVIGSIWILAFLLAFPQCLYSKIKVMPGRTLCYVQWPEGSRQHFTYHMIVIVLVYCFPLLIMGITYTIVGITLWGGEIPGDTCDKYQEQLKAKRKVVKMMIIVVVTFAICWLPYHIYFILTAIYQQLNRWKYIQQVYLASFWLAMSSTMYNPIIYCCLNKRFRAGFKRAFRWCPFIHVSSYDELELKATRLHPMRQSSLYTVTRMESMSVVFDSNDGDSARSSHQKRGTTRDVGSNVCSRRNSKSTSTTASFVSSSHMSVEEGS
Experimental: NK3 Receptor Binding Test
(a) Preparation of Crude Cerebral Membrane Specimens
Crude membrane specimens were prepared from the brain of male Hartley guinea pigs. Namely, the animals were sacrificed by exsanguination from the abdominal aorta under chloroform anesthesia After perfusing with Buffer (1) (50 mM Tris-HCl, pH 7.4) from the right ventricle, the brain was enucleated immediately. The excised brain was homogenized in buffer (2) (buffer (1) containing 120 mM sodium chloride and 5 mM potassium chloride) using a Polytron. Tissue mass was removed from the homogenate by passing through a Nylon mesh (50 μm) and separating by centrifugation (30,000×g, 30 minutes, 4° C.). […]
The filter containing the membrane component was transferred to a mini plastic vial containing 4 ml of Picoflow and radioactivity was measured with a liquid scintillation counter (Aloka, LSC 3500).
In order to determine the radioactivity due to non-specific binding of [^3H]-senktide (binding to sites other than the receptor, for example, the filter), the Experiment was carried out by adding an excess amount of senktide (final concentration: 10 μM), and the radioactivity was measured.
The inhibitory ratio of senktide-receptor binding due to a test compound was calculated by the following equation. […]
A: radioactivity due to nonspecific binding
B: radioactivity in the test without the addition of a test compound […]

T1 sequence (P30547 whole entry): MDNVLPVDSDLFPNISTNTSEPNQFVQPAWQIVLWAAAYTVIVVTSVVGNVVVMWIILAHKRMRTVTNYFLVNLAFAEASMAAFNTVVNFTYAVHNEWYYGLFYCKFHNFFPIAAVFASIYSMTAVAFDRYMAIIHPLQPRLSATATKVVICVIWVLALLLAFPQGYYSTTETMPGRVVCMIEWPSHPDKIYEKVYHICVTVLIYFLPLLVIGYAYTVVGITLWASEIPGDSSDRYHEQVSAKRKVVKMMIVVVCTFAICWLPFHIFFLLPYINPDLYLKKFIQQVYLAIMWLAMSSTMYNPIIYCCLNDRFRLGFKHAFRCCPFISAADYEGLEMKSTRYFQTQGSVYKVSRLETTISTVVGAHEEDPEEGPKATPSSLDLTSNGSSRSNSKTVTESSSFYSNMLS

COc1cc(C(=O)N2CCO[C@](CCN3CCC4(CC3)c3ccccc3CC4O)(c3ccc(Cl)c(Cl)c3)C2)cc(OC)c1OC (stereo partly drawn) [Example 1, 1-{2-[(2R)-(3,4-Dichlorophenyl)-4-(3,4,5-trimethoxybenzoyl)morpholin-2-yl]ethyl}spiro[(2-hydroxy)indane-1,4′-piperidine]]
superior to those of Compound A: antagonistic activity against NK1 receptor [1] | antagonistic activity against NK2 receptor [2] | antagonistic activity against NK3 receptor [3]

COc1cc(C(=O)N2CCO[C@](CCN3CCC4(CC3)CC(O)c3ccccc34)(c3ccc(Cl)c(Cl)c3)C2)cc(OC)c1OC (stereo partly drawn) [Example 2, 1-{2-[(2R)-(3,4-Dichlorophenyl)-4-(3,4,5-trimethoxybenzoyl)mopholin-2-yl]ethyl}spiro[(3-hydroxy)indane-1,4′-piperidine]]
superior to those of Compound A: antagonistic activity against NK1 receptor [1] | antagonistic activity against NK2 receptor [2] | antagonistic activity against NK3 receptor [3]
